Experimental findings from patent publication US8889840B2, “Vascular leakage inhibitor” (Industry-Academic Cooperation Foundation, Yonsei University, priority 2009, dated 2014) are described below.

For test [1], the system named is human retinal endothelial cells (HRECs). The experiment in a line: Serum depletion-induced apoptosis of HRECs, MTT assay and cell morphology. The class given is cell-based. The note with it: for ability of inhibiting apoptosis (MTT assay): 48 hours after treatment; for ability of protecting retinal vascular endothelial cells from apoptosis induced by the removal of serum (MTT): serum-free medium, 0.1-10 μg/mL. As to the method:
HRECs (3×10^4 cells/well) were seeded on a 24-well plate in M199 medium containing 20% fetal bovine serum. The next day, the cells were transferred to a medium containing […] Sac0601 (FIG. 4a) or 0.1-10 μg/mL Sac0504 (FIG. 4b). Cell viability was determined by MTT assay 48 hours later. FIGS. 5a-5c show the result of observing cell morphologies.
Human umbilical vein endothelial cells (HUVECs) and human retinal endothelial cells (HRECs) purchased from Cell Systems (USA) were seeded on a 100-mm culture dish in M199 medium (Life Technologies, USA) containing 20% (w/v) fetal bovine serum (FBS, HyClone, Canada), 100 units/mL penicillin (Invitrogen, USA), 100 μg/mL streptomycin (invitrogen, USA), 3 ng/mL basic fibroblast growth factor (bFGF, Upstate Biotechnology, USA) and 5 units/mL heparin and cultured in a 5% CO2 incubator at 37° C.
Also, HRECs were treated with the compounds synthesized in Synthesis Example 5 and MIT assay was performed 48 hours later in the same manner as described above.
Also, the acid compound wherein the methyl ester formed by the introduction of the ester group was hydrolyzed was synthesized to provide improved water solubility and activity. MYT assay was performed for the compounds synthesized in Synthesis Example 6 in the same manner as described above 48 hours after treatment.
Their ability of inhibiting apoptosis was confirmed again for HRECs. HRECs (3×10^4 cells/well) were seeded on a 24-well plate in M199 medium (1 mL) containing 20% fetal bovine serum, Next day, the cells were transferred to serum-free M199 medium containing 0.1-10 μg/ml. Sac060.1 (FIG. 4a) or 0.1-10 μg; mL Sac0504 (FIG. 4b). Cell viability was determined by MTF assay in the same manner as in Test Example 1.
Their ability of inhibiting apoptosis was confirmed again for HRECs.

Test [2] concerns HUVECs. The experiment in a line: VEGF-induced actin stress fibers in HUVECs, rhodamine phalloidin staining. The test is classed as cell-based, human. Conditions: 10 μg/mL pretreatment 1 hour, 20 ng/mL VEGF. As to the method:
Confluent HUVECs were pretreated with the compounds (10 μg/mL) for 60 minutes before treating with 20 ng/mL VEGF (1 hr). The cells were then stained with rhodamine phalloidin.
It is known that the change in the actin structure of the cytoskeleton is closely related with the permeability of vascular endothelial cells. Increased permeability of vascular endothelial cells leads to increased formation of actin stress fibers and decrease of cortical actin ring structures. Based on this, the ability of inhibiting vascular endothelial permeability of the synthesized Rk1 derivatives was screened. Confluent HUVECs were pretreated with the synthesized compounds (10 μg/mL) for 1 hour before treating with 20 ng/mL VEGF (Upstate Biotechnology). Subsequently, the cells were fixed with 4% paraformaldehyde for 20 minutes at room temperature and washed 3 times with PBS (pH 7.4). Then, the cells were permeabilized with 0.1% Triton X-100/PBS and reacted with 0.1 mg/mL rhodamine phalloidin (Molecular Probes) for 1 hour. Then, the cells were observed under a fluorescence microscope (Olympus).

Test [3] concerns HRECs. Kind of test: VEGF-induced actin stress fibers in HRECs, rhodamine phalloidin staining. The class given is cell-based, human. The note with it: 10 μg/mL 1 hour, then 20 ng/mL VEGF 1 hour. As to the method: Confluent HRECs were treated with 10 μg/mL Sac0601 or Sac0504 for 1 hour and then with 20 ng/mL VEGF for 1 hour. Subsequently, the cells were fixed at room temperature for 20 minutes with 4% paraformaldehyde and washed 3 times with PBS (pH 7.4). Then, the cells were permeabilized with 0.1% Triton X-100/PBS and reacted with 0.1 mg/mL rhodamine phalloidin (Molecular Probes) for 1 hour. Then, the cells were observed under a fluorescence microscope (Olympus). […] The analysis of actin cytoskeleton was conducted also for the compounds synthesized in Synthesis Example 5. Both Sac0904 and Sac0902 exerted effects in a concentration-dependent manner on the actin cytoskeleton which is closely related with vascular permeability (FIG. 7c).

Test [4] has as its system diabetic mouse (DM) model. Kind of test: Retinal vascular permeability in diabetic mouse (DM) model, FITC-dextran. The class given is in vivo, C57/BL6 mouse. Conditions: streptozotocin diabetic mouse, 10 μg into the vitreous body, 24 hours. On the procedure:
10 μg of Sac0601 or 10 μg of Sac0504 was injected into the vitreous body of one eye of a diabetic mouse. 24 hours after the injection, 100 μL of FITC-dextran (30 mg/mL in filtered […]) was injected into the left ventricle. Then, the retina was observed under an optical microscope (FIG. 11a) and the fluorescence intensity was quantified (FIG. 11b).
For in vivo analysis of the effect of the synthesized Rk1 derivatives on increased vascular permeability in diabetic retinopathy, a diabetic mouse (DM) model was made by injecting streptozotocin to C57/BL6 mouse. Sac 0601 or Sac 0504 (10 μg) was injected into the vitreous body of the mouse. 24 hours later, 40-kDa FITC-dextran (30 mg/mL in PBS, Sigma) was injected into the left ventricle. After waiting for about 2 minutes for circulation of the tracer, the eyes were taken out and fixed immediately in 4% PFA. Then, the retina was taken out and observed under an optical microscope.

Test [5] concerns HRECs. The experiment in a line: Stability of tight junctions (TJs) at cell-cell contacts in VEGF-treated HRECs, anti-occludin immunostaining. The test is classed as cell-based, human. The note with it: 10 μg/mL 1 hour, then 20 ng/mL VEGF 1 hour. As to the method: In FIG. 8a, confluent HRECs were pretreated with Sac0601 (panel A in FIG. 8a) or Sac0504 (panel B in FIG. 8a) for 60 minutes before treating with 20 ng/ml. VEGF (1 hr). The cells were then stained with occludin antibody.
(§1) Confluent HRECs were treated with 10 μg/mL Sac0601 (FIG. 8a, panel A) or Sac0504 (FIG. 8a, panel B) for 1 hour and then with 20 ng/mL. VEGF for 1 hour. Subsequently, the cells were fixed at room temperature for 20 minutes with 4% paraformaldehyde and permeabilized with 0:1% Triton X-100/PBS. Then, the cells were incubated in PBS blocking solution containing 5% normal goat serum and 0.05% Tween-20. The cells were then reacted with anti-occludin antibody (Zymed Laboratories Inc.). The result was visualized with fluorescein-conjugated anti-mouse antibody (Vector Lab.). Also, western blotting was conducted for the cell lysate. The cell lysate was fractionated with SDS-PAGE and then transferred to polyvinyl difluoride membrane. The blocked membrane was reacted with anti-occludin antibody (Zymed Laboratories Inc.) and the immune response band was visualized with the chemiluminescence reagent obtained from Amersham Biosciences, Inc.

The subject of test [6] is occludin. The experiment in a line: Occludin western blotting of HREC lysate. The test is classed as cell-based, human. The note with it: HRECs, pretreatment 60 minutes, then 20 ng/mL VEGF 1 hour. On the procedure: In FIG. 8b, confluent HRECs were pretreated with Sac0601 (10 μg/mL) for 60 minutes before treating with 20 ng/mL VEGF (1 hr). Then, cell lysate was subjected to western blotting using anti-occludin antibody.
as §1
For orientation: Immunoblotting shows a protein as a band on a membrane.

For test [7], the system named is HRECs. The experiment in a line: Permeability of HRECs on transwell filter, labelled sucrose. The class given is cell-based, human. The note with it: 10 μg/mL 60 minutes, with or without 20 ng/mL VEGF. As to the method: HRECs were seeded on a transwell filter. After reaching confluency, the cells were pretreated with Sac0601 (FIG. 10a) and Sac0504 (FIG. 10b) for 60 minutes before treating with 20 ng/ml. VEGF (1 hr). The permeability of HRECs was determined by measuring radiation of […] (1 μCi/μL) diffused below the transwell using a liquid scintillation counter.
The effect of Sac0601 and Sac0504 on vascular permeability was analyzed. HRECs were seeded on a transwell filter (Corning Costar). After reaching confluency, the cells were cultured in M199 medium containing 1% FBS for 3 hours and treated with 10 μg/mL. Sac0601 (FIG. 10a) or Sac0504 (FIG. 10b) for 60 minutes, with or without pretreatment with 20 ng/mL VEGF for 60 minutes. Then, [^3H]sucrose (1 μCi [0.037 MBq.]/μL or 50 μL (0.8 μCi [0.0296 MBq])/mL, Amersham Pharmacia) were added. 30 minutes later, radiation diffused below the transwell was measured using a liquid scintillation counter (Wallac, PerkinElmer). Measurement was made at least four locations.

Regarding `CC(=O)OCC1OC(OC2CCC3(C)C(=CCC4C3CCC3(C)C4CCC3C(C)(O)CCCC(C)C)C2)C=CC1OC(C)=O` (stereo not shown) [Sac0902], in test [1], the “ability of inhibiting apoptosis (MTT assay)” value is given as “better ability of inhibiting apoptosis than Sac0601” and the “ability of protecting retinal vascular endothelial cells from apoptosis induced by the removal of serum (MTT)” value (from here on “ability … (MTT)”) is “showed the ability of protecting the vascular endothelial cells from apoptosis induced by the removal of serum in a concentration-dependent manner”. Moreover, in test [2], the “cortical actin ring structure” value is “increased the cortical actin ring structure” and the “formation of actin stress fibers induced by VEGF” value (“formation … by VEGF” below) is given as “inhibited the formation of actin stress fibers induced by VEGF”. Moreover, in test [3], the “formation … by VEGF” value is on record as “inhibited the formation of actin stress fibers” and the “formation of cortical actin ring structures” value is given as “increased the formation of cortical actin ring structures”. Further, in test [4], the “retinal vascular permeability induced in the DM” value is on record as “only limitedly”.

`CC(=O)OCC1OC(OC2CCC3(C)C(=CCC4C3CCC3(C)C(C(C)=CCCC(C)C)CCC43)C2)C=CC1OC(C)=O` (stereo not shown) [Sac0904]: in test [1], the “ability of inhibiting apoptosis (MTT assay)” value was “better ability of inhibiting apoptosis than Sac0601” and the “ability … (MTT)” value is listed as “showed the ability of protecting the vascular endothelial cells from apoptosis induced by the removal of serum in a concentration-dependent manner”. In test [2], the “cortical actin ring structure” value is reported as “increased the cortical actin ring structure” and the “formation … by VEGF” value is given as “inhibited the formation of actin stress fibers induced by VEGF”. Also, in test [3], the “formation … by VEGF” value is listed as “inhibited the formation of actin stress fibers” and the “formation of cortical actin ring structures” value is “increased the formation of cortical actin ring structures”. Further, in test [4], the “retinal vascular permeability induced in the DM” value is on record as “very effectively”.

In the case of `COC(=O)CCC/C=C(\C)[C@H]1CCC2C3CC=C4C[C@@H](OC5C=C[C@H](OC(C)=O)[C@@H](COC(C)=O)O5)CC[C@]4(C)C3CC[C@@]21C` (stereo partly shown) [Sac1004], in test [1], the “ability of inhibiting apoptosis (MTT assay)” value is listed as “improved ability of inhibiting apoptosis over SAC-0904” and the “ability … (MTT)” value is recorded as “showed the ability of protecting the vascular endothelial cells from apoptosis induced by the removal of serum in a concentration-dependent manner”. For the same molecule, the “ability of protecting the vascular endothelial cells” value in test [1] (incl. observation of cell morphologies) was “improved ability of protecting the vascular endothelial cells over SAC-0904”. In addition, in test [2], the “cortical actin ring structure” value is “increased the cortical actin ring structure” and the “formation … by VEGF” value is reported as “inhibited the formation of actin stress fibers induced by VEGF”. Moreover, in test [3], the “formation … by VEGF” value is “inhibited the formation of actin stress fibers” and the “formation of cortical actin ring structures” value is recorded as “increased the formation of cortical actin ring structures”. Also, in test [5], the “redistribution of TJs into the cytoplasm or destabilizing at the cell membrane induced by VEGF” value is recorded as “could be inhibited”. The “occludin (western blotting)” value in test [6] is recorded as “restores the activity of occludin decreased by VEGF”. The “permeability of the vascular endothelial cells” value in test [7] is “inhibiting permeability of the vascular endothelial cells”. Also, the “retinal vascular permeability induced in the DM” value in test [4] is listed as “very effectively”.
